From patent publication US11274124B2, “Tubulysin analogues as anticancer agents and payloads for antibody-drug conjugates and methods of treatment therewith” (William Marsh Rice University, priority 2017, dated 2022)
Read-outs that look alike come from different tables or passages of the source.

Legend:
[1] = system: MES SA (uterine sarcoma cell line); experiment: In vitro cytotoxicity assay (CellTiter-Glo, 72 hours), MES SA; format: cell-based; details: Homo sapiens, MES-SA, 72 h
[2] = system: HEK 293T (human embryonic kidney cancer cell line); experiment: In vitro cytotoxicity assay (CellTiter-Glo, 72 hours), HEK 293T; format: cell-based; details: Homo sapiens, HEK-293T, 72 h
[3] = system: MES SA DX (MES SA cell line with marked multi-drug resistance); experiment: In vitro cytotoxicity assay (CellTiter-Glo, 72 hours), MES SA DX; details: for IC50: Homo sapiens, MES-SA, 72 h
[4] = system: MES SA, MES SA DX and HEK 293T cells; experiment: In vitro cytotoxicity assay, structure-activity discussion over the cell lines tested; details: refers to Tables 2 and 3
[5] = read-out: MES SA, IC50 Value in nM
[6] = read-out: HEK 293T, IC50 Value in nM
[7] = read-out: MES SA DX, IC50 Value in nM

Row | SMILES | IC50 [1, 5] [nM] | IC50 [2, 6] [nM] | IC50 [3, 7] [nM] | cytotoxicity potency (in words, structure-activity discussion) [4] | IC50 ([1]; read-out: MES SA, IC50) [nM] | IC50 ([2]; read-out: HEK 293T, IC50) [nM] | cytotoxicities against the marked drug resistant cancer cell line MES SA DX (in words) [3] | IC50 ([3]; read-out: MES SA DX, IC50) [nM]
1 | CCOC(=O)[C@@H](C)C[C@H](Cc1ccccc1)NC(=O)c1csc([C@@H](C[C@H](C(C)C)N(C)C(=O)CNC(=O)[C@H]2CCCCN2C)OC(C)=O)n1 [Tb88, Ethyl (2S,4R)-4-[({2-[(1R,3R)-1-acetoxy-4-methyl-3-{methyl[({[(2R)-1-methylpiperidin-2-yl]carbonyl}amino)acetyl]amino}pentyl]-1,3-thiazol-4-yl}carbonyl)amino]-2-methyl-5-phenylpentanoate] | 458 | 494 | > 2500 | no significant activity | – | – | – | –
2 | COC(=O)[C@@H](C)C[C@H](Cc1ccccc1)NC(=O)c1nc([C@@H](C[C@H](C(C)C)N(C)C(=O)[C@@H](NC(=O)[C@H]2CCCCN2C)C(C)C)OC(C)=O)sc1C [Tb66, Methyl (2S,4R)-4-[({2-[(1R,3R)-1-acetoxy-4-methyl-3-{methyl[(2S)-3-methyl-2-({[(2R)-1-methyl-piperidin-2-yl]carbonyl}amino)butanoyl]amino}pentyl]-5-methyl-1,3-thiazol-4-yl}carbonyl)amino]-2-methyl-5-phenylpentanoate] | 1.03 | 0.773 | > 1000 | some loss of potency | – | – | – | –
3 | CCCCN1CCCC[C@@H]1C(=O)N[C@H](C(=O)N(C)[C@H](C[C@@H](OC(C)=O)c1nc(C(=O)N[C@H]2CC[C@H](C(=O)OC)CC2)cs1)C(C)C)C(C)C [Tb54, Methyl trans-4-[({2-[(1R,3R)-1-acetoxy-3-{[(2S)-2-({[(2R)-1-butylpiperidin-2-yl]carbonyl}amino)-3-methylbutanoyl](methyl)amino}-4-methylpentyl]-1,3-thiazol-4-yl}carbonyl)amino]cyclohexanecarboxylate] | > 1000 | > 1000 | > 1000 | insignificant or low biological activity | – | – | – | –
4 | CC(=O)O[C@H](C[C@H](C(C)C)N(C)C(=O)[C@@H](NC(=O)[C@H]1CCCCN1C)C(C)(C)C)c1nc(C(=O)N[C@@H](Cc2ccccc2)C[C@H](C)C(=O)O)cs1 [Tb107, (2S,4R)-4-[({2-[(1R,3R)-1-Acetoxy-3-{[(2S)-3,3-dimethyl-2-({[(2R)-1-methylpiperidin-2-yl]carbonyl}amino)butanoyl](methyl)amino}-4-methylpentyl]-1,3-thiazol-4-yl}carbonyl)amino]-2-methyl-5-phenylpentanoic acid] | 0.01 | 0.02 | 4.05 | exceptional potencies | 0.01 | 0.02 | relatively potent (low nanomolar) | 4.05
5 | CC(C)[C@H](NC(=O)[C@H]1CCCCN1C)C(=O)N(C)[C@H](C[C@@H](O)c1nc(C(=O)N[C@@H](Cc2ccccc2)C[C@H](C)C(=O)O)cs1)C(C)C [Tb60, (2S,4R)-4-[({2-[(1R,3R)-1-Hydroxy-4-methyl-3-{methyl[(2S)-3-methyl-2-({[(2R)-1-methylpiperidin-2-yl]carbonyl}amino)butanoyl]amino}pentyl]-1,3-thiazol-4-yl}carbonyl)amino]-2-methyl-5-phenylpentanoic acid] | 14 | 6.34 | > 2500 | significant reduction in potency | – | – | – | –
6 | CC(=O)O[C@H](C[C@H](C(C)C)N(C)C(=O)[C@@H](NC(=O)[C@H]1CCCCN1C)C(C)C)c1nc(C(=O)N[C@@H](Cc2ccccc2)C[C@H](C)C(=O)O)c(C(C)C)s1 [Tb73, (2S,4R)-4-[({2-[(1R,3R)-1-Acetoxy-4-methyl-3-{methyl[(2S)-3-methyl-2-({[(2R)-1-methylpiperidin-2-yl]carbonyl}amino)butanoyl]amino}pentyl]-5-isopropyl-1,3-thiazol-4-yl}carbonyl)amino]-2-methyl-5-phenylpentanoic acid] | 1.28 | 0.16 | 44.7 | significant loss of potency | 1.28 | 0.16 | – | 44.7
7 | CCCC[C@H](NC(=O)[C@H]1CCCCN1C)C(=O)N(C)[C@H](C[C@@H](OC(C)=O)c1nc(C(=O)N[C@@H](Cc2ccccc2)C[C@H](C)C(=O)OCC)cs1)C(C)C [Tb95, Ethyl (2S,4R)-4-[({2-[(1R,3R)-1-acetoxy-4-methyl-3-{methyl[(2S)-2-({[(2R)-1-methylpiperidin-2-yl]-carbonyl}amino)hexanoyl]amino}pentyl]-1,3-thiazol-4-yl}carbonyl)amino]-2-methyl-5-phenylpentanoate] | 0.937 | 0.53 | > 1000 | lack of or significantly lower cytotoxicities | 0.937 | 0.53 | – | > 1000
8 | CC[C@H](C)[C@H](NC(=O)c1nccn1C)C(=O)N(C)[C@H](C[C@@H](OC(C)=O)c1nc(C(=O)N[C@@H](Cc2ccccc2)C[C@H](C)C(=O)OC)cs1)C(C)C [Tb51] | > 1000 | > 1000 | > 1000 | insignificant or low biological activity | – | – | – | –
9 | CC[C@H](C)[C@H](NC(=O)[C@H]1CCCCN1C)C(=O)N(C)[C@H](CC(=O)c1nc(C(=O)N[C@@H](Cc2ccccc2)C[C@H](C)C(=O)O)cs1)C(C)C [Tb59, (2S,4R)-2-Methyl-4-[({2-[(3R)-4-methyl-3-{methyl[(2S,3S)-3-methyl-2-({[(2R)-1-methylpiperidin-2-yl]carbonyl}amino)pentanoyl]amino}pentanoyl]-1,3-thiazol-4-yl}carbonyl)amino]-5-phenylpentanoic acid] | > 1000 | > 1000 | > 1000 | significant reduction in potency | – | – | – | –
10 | CC[C@H](C)[C@H](NC(=O)c1cccn1C)C(=O)N(C)[C@H](C[C@@H](OC(C)=O)c1nc(C(=O)N[C@@H](Cc2ccccc2)C[C@H](C)C(=O)OC)cs1)C(C)C [Tb50] | > 1000 | > 1000 | > 1000 | insignificant or low biological activity | – | – | – | –
11 | CCOC(=O)[C@@H](C)C[C@H](Cc1ccccc1)NC(=O)c1csc([C@@H](C[C@H](C(C)C)N(C)C(=O)[C@H](CCC(C)C)NC(=O)[C@H]2CCCCN2C)OC(C)=O)n1 [Tb97, Ethyl (2S,4R)-4-[({2-[(1R,3R)-1-acetoxy-4-methyl-3-{methyl[(2S)-5-methyl-2-({[(2R)-1-methyl-piperidin-2-yl]carbonyl}amino)hexanoyl]amino}pentyl]-1,3-thiazol-4-yl}carbonyl)amino]-2-methyl-5-phenylpentanoate] | 4.65 | 2.87 | > 1000 | lack of or significantly lower cytotoxicities | – | – | – | –
12 | CCOC(=O)[C@@H](C)C[C@H](Cc1ccccc1)NC(=O)c1csc([C@@H](C[C@H](C(C)C)N(C)C(=O)[C@H](CCC(C)C)NC(=O)[C@H]2CCCN2C)OC(C)=O)n1 [Tb98, Ethyl (2S,4R)-4-[({2-[(1R,3R)-1-acetoxy-4-methyl-3-{methyl[(2S)-5-methyl-2-({[(2R)-1-methyl-pyrrolidin-2-yl]carbonyl}amino)hexanoyl]amino}pentyl]-1,3-thiazol-4-yl}carbonyl)amino]-2-meth-yl-5-phenylpentanoate] | 41.8 | 26.5 | 393 | lack of or significantly lower cytotoxicities | – | – | – | –
13 | COC(=O)[C@@H](C)C[C@H](Cc1ccccc1)NC(=O)c1nc([C@@H](C[C@H](C(C)C)N(C)C(=O)[C@@H](NC(=O)[C@H]2CCCN2C)C(C)C)OC(C)=O)sc1C [Tb70, Methyl (2S,4R)-4-[({2-[(1R,3R)-1-acetoxy-4-methyl-3-{methyl[(2S)-3-methyl-2-({[(2R)-1-methyl-pyrrolidin-2-yl]carbonyl}amino)butanoyl]amino}pentyl]-5-methyl-1,3-thiazol-4-yl}carbonyl)amino]-2-methyl-5-phenylpentanoate] | 3.11 | 2.32 | > 1000 | significant loss of potency | – | – | – | –
14 | Cc1sc(C(=O)C[C@H](C(C)C)N(C)C(=O)[C@@H](NC(=O)[C@H]2CCCCN2C)C(C)C)nc1C(=O)N[C@@H](Cc1ccccc1)C[C@H](C)C(=O)O [Tb68, (2S,4R)-2-Methyl-4-[({5-methyl-2-[(3R)-4-methyl-3-{methyl[(2S)-3-methyl-2-({[(2R)-1-methyl-piperidin-2-yl]carbonyl}amino)butanoyl]amino}pentanoyl]-1,3-thiazol-4-yl}carbonyl)amino]-5-phenylpentanoic acid] | > 1000 | > 1000 | > 1000 | significant reduction in potency | – | – | – | –
15 | CCCCN1CCCC[C@@H]1C(=O)N[C@H](C(=O)N(C)[C@H](C[C@@H](OC(C)=O)c1nc(C(=O)N[C@H]2CC[C@H](C(=O)O)CC2)cs1)C(C)C)C(C)C [Tb55, trans-4-[({2-[(1R,3R)-1-Acetoxy-3-{[(2S)-2-({[(2R)-1-butylpiperidin-2-yl]carbonyl}amino)-3-methylbutanoyl](methyl)amino}-4-methylpentyl]-1,3-thiazol-4-yl}carbonyl)amino]cyclohexanecarboxylic acid] | > 1000 | > 1000 | > 1000 | insignificant or low biological activity | – | – | – | –
